Data: US20110003847A1, “Prasugrel Salts with Improved Properties” (HELM AG, priority 2008, published 2011)
Where a name gives a salt, the structure may show the parent alone.

Experiments:
[1] = Corrosiveness of the salts; type: physicochemical
[2] = Hygroscopicity of the salts; type: physicochemical
[3] = Storage of tablets at room temperature in an open container (discoloration); type: physicochemical; conditions: tablets stored 9 days at room temperature (15-25° C.) in an open container
Experimental: Tablets were stored for 9 days at room temperature (15-25° C.) in an open container.

mammals = experiment: Toxicity of prasugrel salts with regard to mammals; type: in vivo; conditions: compared with other salts
Excerpt: Although the exact reason for this low toxicity hat not yet been found, it is assumed that this effect is due to a different solubility of the salts. The toxicity and safety margin of prasugrel can be controlled by varying the solubility of its salts.

hygroscopicity [2] | discoloration of tablets on storage [3] | Compound | corrosiveness [1] | toxicity (mammals)
not hygroscopic | – | CC(=O)Oc1cc2c(s1)CCN(C(C(=O)C1CC1)c1ccccc1F)C2.O=S(=O)(O)c1cccc2c(S(=O)(=O)O)cccc12 (stereo not shown) [prasugrel napadisylate, Prasugrel-1,5-Dinapsylate] | not corrosive | –
not hygroscopic | – | CC(=O)Oc1cc2c(s1)CCN(C(C(=O)C1CC1)c1ccccc1F)C2.O=S(=O)(O)c1ccc2ccccc2c1 (stereo not shown) [prasugrel napsylate, Prasugrel-2-Napsylate] | not corrosive | –
– | clear discoloration | CC(=O)Oc1cc2c(s1)CCN(C(C(=O)C1CC1)c1ccccc1F)C2 (stereo not shown) [prasugrel-HCl, Prasugrel-Hydrochloride] | – | –

Compound | hygroscopicity [2] | discoloration of tablets on storage [3] | corrosiveness [1] | toxicity (mammals)
Prasugrel-Besylate [prasugrel besylate] | not hygroscopic | – | – | very low toxicity
